Values of other authors, collected in patent publication US20130183383A1, “PHARMACEUTICAL COMPOSITIONS FOR CALANOLIDES, THEIR DERIVATIVES AND ANALOGUES, AND PROCESS FOR PRODUCING THE SAME” (Craun Research SDN BHD, priority 2010, published 2013).

Conditions: soft gelatin capsules containing 100 mg (+)-calanolide A in oil-based / sesame oil-based vehicle

Bioavailability: poor bioavailability
SMILES: CCCc1cc(=O)oc2c3c(c4c(c12)OC(C)(C)C=C4)O[C@H](C)[C@@H](C)[C@@H]3O [calanolide A, (+)-Calanolide A]
